Reference: patent publication US11835503B2, “TMA-formation inhibitor treatment for elevated TMA-containing compound diseases” (The Cleveland Clinic Foundation, priority 2009, dated 2023)

Columns and labels:
intestinal flora = test: oral d9-(trimethyl)-PC challenge in subjects, time course of plasma d9-TMA by LC/MS/MS; assay type: in vivo, humans; conditions: human subjects, 250 mg oral
Method: TMA is detected in plasma. While TMA is a gas at room and body temperature, if one acidifies the plasma, and the sample flash frozen and analyzed immediately upon thaw, one can measure the TMA cation by mass spectrometry.
Subjects were given 250 mg of d9-(trimethyl)-PC, and then time course of d9-TMA in plasma quantified. […] Plasma TMA was quantified by LC/MS/MS of samples immediately after blood draw, acidification of the plasma with 10 mM HCl to lower TMA vapor pressure, and snap freezing in liquid nitrogen and storage at −80 C until time of analysis.

intestinal microflora [1] = test: D3-carnitine gavage in mice, plasma D3-crotonobetaine and D3-gamma-butyrobetaine by LC/MS/MS; assay type: in vivo
Description: In further work, mice were gavaged with D3-carnitine and the time dependent appearance of D3-crotonobetaine and gamma butyrobetaine were quantified in plasma. Where indicated in FIG. 9, mice were pretreated for 3 weeks with a broad spectrum antibiotic cocktail to suppress intestinal microflora. […] D3-crotonobetaine and D3-gamma-butyrobetaine were quantified in plasma by LC/MS/MS analysis isolated at the indicated times following D3-carnitine gavage feeding. Results are shown in FIG. 9, with crotonbetaine production shown in FIG. 9A, and gamma-butyrobetain production shown in FIG. 9B.

intestinal microflora [2] = test: D3-carnitine gavage in mice, plasma D3-TMA and D3-TMANO by stable isotope dilution LC/MS/MS; assay type: in vivo; conditions: gavage at t=0, plasma
Description: In additional work, mice were gavaged with D3-carnitine and the time dependent appearance of D3-TMA and TMANO were quantified in plasma. Where indicated in FIG. 8, mice were pretreated for 3 weeks with a broad spectrum antibiotic cocktail to suppress intestinal microflora. […] Plasma levels of the deuterium (D3) labeled metabolites of D3-carnitine, D3-TMA and D3-TMANO, were quantified in plasma by stable isotope dilution LC/MS/MS analysis. D3-Carnitine was given by gavage feeding to mice at t=0. Results are shown in FIG. 8, with TMA production shown in FIG. 8B and TMANO production in FIG. 8C.

Compound | time at which plasma d9-TMA levels increased after the PC challenge (intestinal flora) [h] | metabolites of D3-carnitine appearing in plasma (D3-crotonobetaine, D3-gamma-butyrobetaine) (intestinal microflora [1]) | metabolites of D3-carnitine appearing in plasma (D3-TMA, D3-TMANO) (intestinal microflora [2])
d9-(trimethyl)-PC | 4 to 8 |  | 
[2H]C([2H])([2H])[N+](C)(C)CC(O)CC(=O)[O-] (stereo not drawn) [D3-carnitine] |  | both compounds are generated as a metabolite of carnitine ingestion | both TMA and TMANO are generated as a metabolite of carnitine ingestion
